Earlier results as cited in PMC3974845 (International journal of peptide research and therapeutics, 2013).
Like-named read-outs stand apart in the source and are kept apart here. [ ]: non-standard residue; d: D form. pY = N[C@@H](Cc1ccc(OP(=O)(O)O)cc1)C(=O)O

Biological target: full length Stat3 (SH2 domain) (Homo sapiens, UniProt P40763)
[1] = affinity for Stat3, Table 1, ref Mandal et al. 2009b
[2] = affinity for Stat3, Table 1, ref Coleman et al. 2005
[3] = affinity for Stat3, Table 1, ref Mandal et al. 2011

Chain of full length Stat3 (SH2 domain) (P40763 whole entry, species assumed, the tested form may be a part): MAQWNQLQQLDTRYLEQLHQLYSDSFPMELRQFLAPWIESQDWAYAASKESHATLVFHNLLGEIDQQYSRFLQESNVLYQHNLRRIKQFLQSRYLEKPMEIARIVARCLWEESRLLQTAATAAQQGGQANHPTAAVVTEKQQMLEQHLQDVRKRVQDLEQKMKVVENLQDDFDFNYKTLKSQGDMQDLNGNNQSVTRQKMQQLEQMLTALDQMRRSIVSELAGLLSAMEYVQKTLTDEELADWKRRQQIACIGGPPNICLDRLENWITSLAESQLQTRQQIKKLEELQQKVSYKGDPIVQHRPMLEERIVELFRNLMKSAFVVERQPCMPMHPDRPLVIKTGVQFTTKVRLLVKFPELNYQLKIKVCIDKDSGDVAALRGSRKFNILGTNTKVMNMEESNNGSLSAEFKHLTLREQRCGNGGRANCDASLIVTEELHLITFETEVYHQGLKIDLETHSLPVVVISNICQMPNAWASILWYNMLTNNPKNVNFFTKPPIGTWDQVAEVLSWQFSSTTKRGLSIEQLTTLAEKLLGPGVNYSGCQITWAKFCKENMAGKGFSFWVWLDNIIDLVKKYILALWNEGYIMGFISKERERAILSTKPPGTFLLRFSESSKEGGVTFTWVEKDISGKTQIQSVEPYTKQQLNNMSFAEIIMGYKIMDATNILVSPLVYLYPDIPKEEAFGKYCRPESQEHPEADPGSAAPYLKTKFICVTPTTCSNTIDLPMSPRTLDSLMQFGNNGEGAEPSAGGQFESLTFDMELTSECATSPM

pCinn-Leu-mPro-Gln-NHBn [Compound 14]
IC50 [1]: 68 ± 8 nM

Ac-pTyr-Leu-Pro-Gln-Val- NH2 (Ac-[pY]LPQV-NH2; SMILES CC(=O)N[C@@H](Cc1ccc(OP(=O)(O)O)cc1)C(=O)N[C@@H](CC(C)C)C(=O)N1CCC[C@H]1C(=O)N[C@@H](CCC(N)=O)C(=O)N[C@H](C(N)=O)C(C)C) [Compound 11]
IC50 [2]: 739 ± 31 nM

βMpCinn-Leu-Pro-Gln- NHBn [Compound 15]
IC50 [3]: 70 ± 15 nM

βMpCinn-Leu-mPro-Gln- NHBn [Compound 16]
IC50 [3]: 46 ± 5 nM

βMpCinn-Leu-mPro-Apa [Compound 18]
IC50 [3]: 88 ± 11 nM | IC50 (βMpCinn-Leu-Xaa-Apa series, fluorescence polarization, ref Mandal et al. 2011): 88 ± 11 nM

Ac-pTyr-Leu-mPro-Gln-Val- NH2 [Compound 12]
IC50 [2]: 265 ± 14 nM

pCinn-Leu-Pro-Gln-NHBn [Compound 13]
IC50 [1]: 138 ± 8 nM
